Laboratory results from US20250346585A1 (Alexion Pharmaceuticals, Inc., priority 2022, published 2025).
Like-named read-outs stand apart in the source and are kept apart here.

Target: Human complement C1s enzyme (Homo sapiens (Human), UniProt P09871)
Test: Human C1s enzyme assay
Assay type: biochemical
Conditions: read-out: IC50 (Stars)
Procedure, shortened: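 IC50 derived by nonlinear regression of rate versus concentration, with rate taken from A405 kinetics (30 s intervals, 30 min) after adding 100 μM each Z-L-Lys-SBzl and DTNB. C1s from human serum, 1.16 nM, exposed to compound for 5 min at RT beforehand; buffer 50 mM Tris, 1 M NaCl, pH 7.5.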

[1] = Human complement C1s enzyme 1.16 nM, substrate Z-L-Lys-SBzl 100 μM, assay of Example 3
[2] = Human C1s enzyme assay of Example 3

Sequence of Human complement C1s enzyme (P09871 438-688 limits assumed): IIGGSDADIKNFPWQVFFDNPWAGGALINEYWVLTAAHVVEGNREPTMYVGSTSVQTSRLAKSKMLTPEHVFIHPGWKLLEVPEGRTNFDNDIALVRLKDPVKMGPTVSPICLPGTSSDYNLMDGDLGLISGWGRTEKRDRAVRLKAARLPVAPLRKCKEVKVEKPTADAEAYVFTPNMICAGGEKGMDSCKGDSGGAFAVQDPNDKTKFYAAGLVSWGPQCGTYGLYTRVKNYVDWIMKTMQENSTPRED
Sequence of Human complement C1s enzyme (P09871 16-437 partner limits assumed): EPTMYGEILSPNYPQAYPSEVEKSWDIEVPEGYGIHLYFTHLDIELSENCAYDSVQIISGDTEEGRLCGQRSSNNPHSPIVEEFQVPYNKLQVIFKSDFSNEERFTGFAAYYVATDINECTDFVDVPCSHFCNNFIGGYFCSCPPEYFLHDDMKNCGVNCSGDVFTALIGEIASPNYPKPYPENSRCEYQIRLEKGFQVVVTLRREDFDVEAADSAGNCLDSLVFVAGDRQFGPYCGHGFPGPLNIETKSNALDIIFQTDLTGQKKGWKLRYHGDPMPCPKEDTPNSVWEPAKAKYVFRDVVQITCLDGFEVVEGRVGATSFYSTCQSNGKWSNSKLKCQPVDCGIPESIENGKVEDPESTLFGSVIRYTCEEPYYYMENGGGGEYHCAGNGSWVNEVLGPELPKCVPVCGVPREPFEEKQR

SMILES: C[C@@H](NC(=O)[C@@H]1C[C@](F)(CO)CN1C(=O)CNC(=O)c1ccc2c(c1)-c1ccccc1C2(F)F)c1cc(C(=N)N)cs1 [Compound 292, (2S,4R)—N—((R)-1-(4-carbamimidoylthiophen-2-yl)ethyl)-1-((9,9-difluoro-9H-fluorene-3-carbonyl)glycyl)-4-fluoro-4-(hydroxymethyl)pyrrolidine-2-carboxamide]
- IC50 [1]: < 100 nM

SMILES: C[C@@H](NC(=O)[C@@H]1C[C@](F)(CF)CN1C(=O)CNC(=O)c1ccc2c(c1)-c1ccccc1C2(F)F)c1ccc(C(=N)N)s1 [Compound 33, (2S,4R)—N—((R)-1-(5-carbamimidoylthiophen-2-yl)ethyl)-1-((9,9-difluoro-9H-fluorene-3-carbonyl)glycyl)-4-fluoro-4-(fluoromethyl)pyrrolidine-2-carboxamide]
- IC50 [2]: < 100 nM

SMILES: C[C@@H](NC(=O)[C@@H]1C[C@@H](OC(F)F)CN1C(=O)CNC(=O)c1ccc(Oc2ccc(C(F)(F)F)cc2)cc1)c1cc(C(=N)N)cs1 [Compound 5, (2S,4R)—N—((R)-1-(4-carbamimidoylthiophen-2-yl)ethyl)-4-(difluoromethoxy)-1-((4-(4-(trifluoromethyl)phenoxy)benzoyl)glycyl)pyrrolidine-2-carboxamide]
- IC50 [2]: < 100 nM

SMILES: O=C(NCC(=O)N1CC2(C[C@H]1C(=O)NCc1cc(NC3=NCCCN3)cs1)OCCO2)c1ccc(Oc2ccc(F)cc2)cc1 [Compound 142, (S)-7-((4-(4-fluorophenoxy)benzoyl)glycyl)-N-((4-((1,4,5,6-tetrahydropyrimidin-2-yl)amino)thiophen-2-yl)methyl)-1,4-dioxa-7-azaspiro[4.4]nonane-8-carboxamide]
- IC50 [2]: > 1000 nM

SMILES: N=C(N)c1csc(C(CN)NC(=O)[C@@H]2C[C@@H](OC(F)F)CN2C(=O)CNC(=O)c2ccc(Oc3ccccc3)cc2)c1 (stereo partly shown) [Compound 314]
- IC50 [1]: > 1000 nM

SMILES: C[C@@H](NC(=O)[C@@H]1C[C@@H](C(F)(F)F)CN1C(=O)CNC(=O)c1ccc(Oc2ccc(F)cc2)cc1)c1cc(C(=N)N)cs1 [Compound 307, (2S,4R)—N—((R)-1-(4-carbamimidoylthiophen-2-yl)ethyl)-1-((4-(4-fluorophenoxy)benzoyl)glycyl)-4-(trifluoromethyl)pyrrolidine-2-carboxamide]
- IC50 [1]: < 100 nM

SMILES: O=C(NCC(=O)N1CC2(C[C@H]1C(=O)NCc1cc(Nc3ncc[nH]3)cs1)OCCO2)c1ccc(Oc2ccc(F)cc2)cc1 [Compound 283, (S)-N-((4-((1H-imidazol-2-yl)amino)thiophen-2-yl)methyl)-7-((4-(4-fluorophenoxy)benzoyl)glycyl)-1,4-dioxa-7-azaspiro[4.4]nonane-8-carboxamide]
- IC50 [1]: > 1000 nM

SMILES: C[C@@H](NC(=O)[C@@H]1C[C@](F)(CF)CN1C(=O)CNC(=O)c1ccc(Oc2ccc(F)cc2)cc1)c1cc(C(=N)N)cs1 [Compound 13]
- IC50 [2]: < 100 nM

SMILES: C[C@@H](NC(=O)[C@@H]1C[C@@H](OC(F)F)CN1C(=O)CNC(=O)c1ccc2c(c1)-c1ccccc1S2(=O)=O)c1cc(C(=N)N)cs1 [Compound 337, (2S,4R)—N—((R)-1-(4-carbamimidoylthiophen-2-yl)ethyl)-4-(difluoromethoxy)-1-((5,5-dioxidodibenzo[b,d]thiophene-2-carbonyl)glycyl) pyrrolidine-2-carboxamide]
- IC50 [1]: < 100 nM

SMILES: C[C@@H](NC(=O)[C@@H]1C[C@@H](OC(F)F)CN1C(=O)CNC(=O)c1ccc2c(c1)-c1ccccc1C2(C)C)c1cc(C(=N)N)cs1 [Compound 132, (2S,4R)—N—((R)-1-(4-carbamimidoylthiophen-2-yl)ethyl)-4-(difluoromethoxy)-1-((9,9-dimethyl-9H-fluorene-3-carbonyl)glycyl)pyrrolidine-2-carboxamide]
- IC50 [2]: < 100 nM

SMILES: CS(=O)(=O)N(c1csc(CNC(=O)[C@@H]2CC3(CN2C(=O)CNC(=O)c2ccc(Oc4ccc(F)cc4)cc2)OCCO3)c1)S(C)(=O)=O [Compound 286, (S)-7-((4-(4-fluorophenoxy)benzoyl)glycyl)-N-((4-((N-(methylsulfonyl)methyl)sulfonamido)thiophen-2-yl)methyl)-1,4-dioxa-7-azaspiro[4.4]nonane-8-carboxamide]
- IC50 [1]: > 1000 nM

SMILES: COC[C@@H]1C[C@@H](C(=O)N[C@H](C)c2cc(C(=N)N)cs2)N(C(=O)CNC(=O)c2ccc(Oc3ccc(F)cc3)cc2)C1 (relative stereo) [Compound 79, (2S,4R*)—N—((R)-1-(4-carbamimidoylthiophen-2-yl)ethyl)-1-((4-(4-fluorophenoxy)benzoyl)glycyl)-4-(methoxymethyl)pyrrolidine-2-carboxamide]
- IC50 [2]: < 100 nM

SMILES: N=C(N)c1csc(CNC(=O)[C@@H]2CC3(CN2C(=O)CNC(=O)c2ccc(-c4ccc(C(=O)O)cc4)cc2)OCCO3)c1 [Compound 214, (S)-4′-((2-(8-(((4-carbamimidoylthiophen-2-yl)methyl)carbamoyl)-1,4-dioxa-7-azaspiro[4.4]nonan-7-yl)-2-oxoethyl)carbamoyl)-[1,1′-biphenyl]-4-carboxylic acid]
- IC50 [1]: < 100 nM

SMILES: N=C(N)c1csc(CNC(=O)[C@@H]2CC3(CN2C(=O)CN2CCc4cc(-c5ccc(F)cc5F)ccc4C2=O)OCCO3)c1 [Compound 245, (S)—N-((4-carbamimidoylthiophen-2-yl)methyl)-7-(2-(6-(2,4-difluorophenyl)-1-oxo-3,4-dihydroisoquinolin-2(1H)-yl)acetyl)-1,4-dioxa-7-azaspiro[4.4]nonane-8-carboxamide]
- IC50 [1]: < 100 nM

SMILES: O=C(NCC(=O)N1CC2(C[C@H]1C(=O)NCc1cc(N3CCCC3)cs1)OCCO2)c1ccc(Oc2ccc(F)cc2)cc1 [Compound 289, (S)-7-((4-(4-fluorophenoxy)benzoyl)glycyl)-N-((4-(pyrrolidin-1-yl)thiophen-2-yl)methyl)-1,4-dioxa-7-azaspiro[4.4]nonane-8-carboxamide]
- IC50 [1]: 100 to 1000 nM

SMILES: Cc1ccc(Oc2ccc(C(=O)NCC(=O)N3C[C@H](OC(F)F)C[C@H]3C(=O)NCc3cc(C(=N)N)cs3)cc2)cc1 [Compound 10, (2S,4R)—N-((4-carbamimidoylthiophen-2-yl)methyl)-4-(difluoromethoxy)-1-((4-(p-tolyloxy)benzoyl)glycyl)pyrrolidine-2-carboxamide]
- IC50 [2]: < 100 nM

SMILES: Cc1ccc(Oc2ccc(C(=O)NCC(=O)N3C[C@@](F)(CF)C[C@H]3C(=O)N[C@H](C)c3cc(C(=N)N)cs3)cc2)cc1 [Compound 14, (2S,4R)—N—((R)-1-(4-carbamimidoylthiophen-2-yl)ethyl)-4-fluoro-4-(fluoromethyl)-1-((4-(p-tolyloxy)benzoyl)glycyl)pyrrolidine-2-carboxamide]
- IC50 [2]: < 100 nM

SMILES: C[C@@H](NC(=O)[C@@H]1CC2(CN1C(=O)CNC(=O)c1ccc(-c3ccc(F)cc3F)cc1)OCCO2)c1cc(C(=N)N)cs1 [Compound 158, (S)—N—((R)-1-(4-carbamimidoylthiophen-2-yl)ethyl)-7-((2′,4′-difluoro-[1,1′-biphenyl]-4-carbonyl)glycyl)-1,4-dioxa-7-azaspiro[4.4]nonane-8-carboxamide]
- IC50 [2]: < 100 nM

SMILES: C[C@@H](NC(=O)[C@@H]1CC2(CN1C(=O)CNC(=O)c1ccc(-c3ccc(F)cc3Cl)cc1)OCCO2)c1cc(C(=N)N)cs1 [Compound 176, (S)—N—((R)-1-(4-carbamimidoylthiophen-2-yl)ethyl)-7-((2′-chloro-4′-fluoro-[1,1′-biphenyl]-4-carbonyl)glycyl)-1,4-dioxa-7-azaspiro[4.4]nonane-8-carboxamide]
- IC50 [2]: < 100 nM

SMILES: C[C@@H](NC(=O)[C@@H]1C[C@H](CO)CN1C(=O)CNC(=O)c1ccc2c(c1)-c1ccccc1C2(F)F)c1cc(C(=N)N)cs1 (relative stereo) [Compound 306, (2S,4S*)—N—((R)-1-(4-carbamimidoylthiophen-2-yl)ethyl)-1-((9,9-difluoro-9H-fluorene-3-carbonyl)glycyl)-4-(hydroxymethyl)pyrrolidine-2-carboxamide]
- IC50 [1]: < 100 nM

SMILES: Nc1cccc(-c2csc(CNC(=O)[C@@H]3CC4(CN3C(=O)CNC(=O)c3ccc(Oc5ccc(F)cc5)cc3)OCCO4)c2)n1 [Compound 103, (S)—N-((4-(6-aminopyridin-2-yl)thiophen-2-yl)methyl)-7-((4-(4-fluorophenoxy)benzoyl)glycyl)-1,4-dioxa-7-azaspiro[4.4]nonane-8-carboxamide]
- IC50 [2]: > 1000 nM

SMILES: C[C@@H](NC(=O)[C@@H]1C[C@@H](S(C)(=O)=O)CN1C(=O)CNC(=O)c1ccc2c(c1)sc1ccccc12)c1cc(C(=N)N)cs1 [Compound 378, (2S,4R)—N—((R)-1-(4-carbamimidoylthiophen-2-yl)ethyl)-1-((dibenzo[b,d]thiophene-3-carbonyl)glycyl)-4-(methylsulfonyl)pyrrolidine-2-carboxamide]
- IC50 [1]: < 100 nM

SMILES: C[C@@H](NC(=O)[C@@H]1C[C@]2(COCCN)C[C@@H]2N1C(=O)CNC(=O)c1ccc(Oc2ccc(F)cc2)cc1)c1cc(C(=N)N)cs1 [Compound 69, (1S,3S,5R)-5-((2-aminoethoxy)methyl)-N—((R)-1-(4-carbamimidoylthiophen-2-yl)ethyl)-2-((4-(4-fluorophenoxy)benzoyl)glycyl)-2-azabicyclo[3.1.0]hexane-3-carboxamide]
- IC50 [2]: < 100 nM

SMILES: C[C@@H](NC(=O)[C@@H]1C[C@]2(CN3CCOCC3)C[C@@H]2N1C(=O)CNC(=O)c1ccc2c(c1)-c1ccccc1C2(F)F)c1cc(C(=N)N)cs1 [Compound 267, (1S,3S,5S)—N—((R)-1-(4-carbamimidoylthiophen-2-yl)ethyl)-2-((9,9-difluoro-9H-fluorene-3-carbonyl)glycyl)-5-(morpholinomethyl)-2-azabicyclo [3.1.0]hexane-3-carboxamide]
- IC50 [1]: < 100 nM

SMILES: C[C@@H](NC(=O)[C@@H]1C[C@@](C)(F)CN1C(=O)CNC(=O)c1ccc2c(c1)-c1ccccc1C2(F)F)c1cc(C(=N)N)cs1 [Compound 268, (2S,4R)—N—((R)-1-(4-carbamimidoylthiophen-2-yl)ethyl)-1-((9,9-difluoro-9H-fluorene-3-carbonyl)glycyl)-4-fluoro-4-methylpyrrolidine-2-carboxamide]
- IC50 [1]: < 100 nM
